Here are results for twelve compounds from patent US9200171B2, “AZO compound and ink containing the compound” (MITSUBISHI CHEMICAL CORPORATION, priority 2011, dated 2015).

Data set [1] in a line: Solubility C (saturated concentration at 5° C.) of compound in low-polarity solvent and product εC. The data set is classed as physicochemical. The conditions noted are these: for ε · C: C at 5° C.; for solubility at 24 h: organic solvent or mixture, thermodynamic from solid; for solubility at 24 h / Solubility: at 5° C. How it is done:
The solubility C of each compound in each solvent was measured as follows.
Each compound was added to each solvent until a dissolution residue came to remain, and the mixture was subjected to an ultrasonic treatment for 30 minutes at 30° C. After the mixture was allowed to stand at 5° C. for 24 hours, centrifugal filtration was performed through a filter of 0.1 μm using a microcentrifuge (centrifugal force 5200×g). The resulting saturated solution was diluted to an appropriate concentration, and measurement of absorption spectra was performed on Hitachi spectrophotometer U-4100 using a quartz cell having an optical path length for measurement of 10 mm. The concentration of each compound was determined from a relationship between the absorbance at the absorption-maximum wavelength λmax (nm) and the molar extinction coefficient ε (L·mol^−1·cm^−1) previously measured, and the solubility C (mol·L^−1) was calculated. Moreover, the value of the product of the molar extinction coefficient ε (L·mol^−1·cm^−1) and the solubility C (mol·L^−1), εC, was determined.
Sudan Black B (manufactured by Tokyo Chemical Industry Co., Ltd.) that is a commercially available oil-soluble black dye was added to n-decane (relative permittivity 2.0, solubility in water 1 mg/L or less) until a dissolution residue came to remain, and the mixture was subjected to an ultrasonic treatment for 30 minutes at 30° C. After the mixture was allowed to stand at 5° C. for 24 hours, centrifugal filtration was performed through a filter of 0.1 μm using a microcentrifuge (centrifugal force 5200×g). The resulting saturated n-decane solution was diluted to an appropriate concentration.

Data set [2] in a line: Absorption-maximum wavelength λmax, molar extinction coefficient ε and solution colour in each solvent. The data set is classed as physicochemical. The conditions noted are these: for ε: at absorption-maximum wavelength. How it is done:
Each of the compounds 1 to 15 and the comparative example compounds 1 and 2 (1 mg each) was dissolved in each solvent (100 ml) and measurement of absorption spectra was performed on Hitachi spectrophotometer U-4100 using a quartz cell having an optical path length for measurement of 10 mm. From the resulting spectra, absorption-maximum wavelength λmax (nm) and molar extinction coefficient ε ([…]) were determined.

Each structure is given as a SMILES string. Converted amounts (≈) assume the structure as drawn.

A word on the solubility: it is the concentration that dissolves in the medium under given conditions. As to `CCCCCc1ccc(N=Nc2cc(C#N)c(/N=N/c3cc(OC)c(N(CC(CC)CCCC)CC(CC)CCCC)cc3NC(C)=O)s2)cc1` (stereo not drawn) [Compound 5], the “ε · C” value in data set [1] (n-decane) stood at 16000 cm⁻¹. Besides, the solubility at 24 h in data set [1] (in n-decane) is 220 mM (≈ 157 mg/mL). In data set [2] (n-decane), this compound yielded an Absorption-maximum wavelength of 667 nm and a ε of 75000 L/mol/cm. In addition, the Color tone result in data set [2] (n-decane solution) was “blue”.

As to `CCCCC(CC)CN(CC(CC)CCCC)c1ccc(/N=N/c2sc(N=Nc3ccc(C(=O)OCC(C)C)cc3)cc2C#N)c(C(C)C)c1` (stereo not drawn) [Compound 4], the “ε · C” value in data set [1] (n-decane) worked out at 1800 cm⁻¹; in data set [1] (tetradecane) it was 1300 cm⁻¹. Moreover, the solubility at 24 h in data set [1] (in n-decane) came out at 27 mM (≈ 18.9 mg/mL); in data set [1] (in tetradecane), 20 mM (≈ 14 mg/mL). Further, the Absorption-maximum wavelength in data set [2] (n-decane) worked out at 638 nm; in data set [2] (tetradecane), 640 nm. Further, the Color tone entry in data set [2] (n-decane solution) and in data set [2] (tetradecane solution) was “blue” in each case. Also, the ε was 66000 L/mol/cm in data set [2] (n-decane) and 64000 L/mol/cm in data set [2] (tetradecane).

The term Solubility denotes the dissolved amount per volume that the medium holds. High values mean a readily soluble substance, low ones a poorly soluble substance. In data set [1] (in n-decane), `CCCCC(CC)CN(CC(CC)CCCC)c1ccc(N=Nc2sc(C=C(C#N)C#N)c(Cl)c2C#N)c(NC(=O)C(CC)CCCC)c1` (stereo not drawn) [Compound 11] had a Solubility of 89 mM (≈ 62.7 mg/mL). For the same compound, the “ε · C” value in data set [1] (n-decane) amounted to 5300 cm⁻¹. In data set [2] (n-decane), this compound yielded an Absorption-maximum wavelength of 642 nm and a ε of 60000 L/mol/cm. For the same compound, the Color tone entry in data set [2] (n-decane solution) was “blue”.

Turning to `CCCCc1ccc(N=Nc2cc(C#N)c(/N=N/c3ccc(N(CC(CC)CCCC)CC(CC)CCCC)cc3C)s2)cc1` (stereo not drawn) [Compound 15], the “ε · C” value in data set [1] (n-decane) was determined as 1700 cm⁻¹. In addition, the solubility at 24 h in data set [1] (in n-decane) was 27 mM (≈ 16.9 mg/mL). Also, in data set [2] (n-decane), the Absorption-maximum wavelength is 613 nm and the ε is 64000 L/mol/cm. Besides, the Color tone entry in data set [2] (n-decane solution) is on record as “blue”.

In the case of `CCCCC(CC)COC(=O)c1ccc(N=Nc2cc(C#N)c(N=Nc3ccc(N(CC(CC)CCCC)CC(CC)CCCC)cc3NC(C)=O)s2)cc1` (stereo not drawn) [Compound 8], the “ε · C” value in data set [1] (Isopar M) stood at 3400 cm⁻¹; in data set [1] (n-decane) it was 4700 cm⁻¹; in data set [1] (tetradecane) it was 3500 cm⁻¹. Also, the Solubility in data set [1] (in Isopar M) was determined as 44 mM (≈ 33.9 mg/mL); in data set [1] (in n-decane), 59 mM (≈ 45.4 mg/mL); in data set [1] (in tetradecane), 44 mM (≈ 33.9 mg/mL). Moreover, the Absorption-maximum wavelength in data set [2] (Isopar M) came to 638 nm; in data set [2] (n-decane), 637 nm; in data set [2] (tetradecane), 639 nm. For the same compound, the Color tone entry in data set [2] (Isopar M solution), in data set [2] (n-decane solution) and in data set [2] (tetradecane solution) was “blue” in each case. For the same compound, the figures for the ε in data set [2] (Isopar M), in data set [2] (n-decane) and in data set [2] (tetradecane) were 78000 L/mol/cm, 79000 L/mol/cm and 79000 L/mol/cm, respectively.

Turning to `CCCCC(CC)CN(CC(CC)CCCC)c1cc(NC(C)=O)c(N=Nc2sc(C(=O)OCC)c(C)c2C(=O)OCC)cc1OC` (stereo not drawn) [Compound 12], in data set [1] (in n-decane), the Solubility was 250 mM (≈ 168 mg/mL). Further, the “ε · C” value in data set [1] (n-decane) was determined as 12000 cm⁻¹. In data set [2] (n-decane), the Absorption-maximum wavelength came out at 582 nm and the ε was 46000 L/mol/cm. For the same compound, the Color tone result in data set [2] (n-decane solution) is given as “blue”.

Regarding `CCCCc1ccc(N=Nc2cc(C#N)c(N=Nc3cc(OC)c(N(CC(CC)CCCC)CC(CC)CCCC)cc3NC(=O)CC)s2)cc1` (stereo not drawn) [Compound 13], in data set [1] (in n-decane), the Solubility stood at 59 mM (≈ 42.1 mg/mL). For the same compound, the “ε · C” value in data set [1] (n-decane) came out at 4400 cm⁻¹. For the same compound, in data set [2] (n-decane), the Absorption-maximum wavelength came out at 667 nm and the ε amounted to 76000 L/mol/cm. For the same compound, the Color tone entry in data set [2] (n-decane solution) is listed as “blue”.

With `CCCCC(CC)COC(=O)C(C#N)=Cc1sc(N=Nc2cc(OC)c(N(CC(CC)CCCC)CC(CC)CCCC)cc2NC(C)=O)nc1Cl` (stereo not drawn) [Compound 10], the “ε · C” value was determined as 5500 cm⁻¹ in data set [1] (Isopar M), 5700 cm⁻¹ in data set [1] (n-decane) and 2000 cm⁻¹ in data set [1] (tetradecane). Also, the results for the Solubility in data set [1] (in Isopar M), in data set [1] (in n-decane) and in data set [1] (in tetradecane) were 64 mM (≈ 48.5 mg/mL), 93 mM (≈ 70.4 mg/mL) and 36 mM (≈ 27.3 mg/mL), respectively. Besides, the Absorption-maximum wavelength in data set [2] (Isopar M) is given as 657 nm; in data set [2] (n-decane) it was 656 nm; in data set [2] (tetradecane) it was 658 nm. The Color tone result in data set [2] (Isopar M solution), in data set [2] (n-decane solution) and in data set [2] (tetradecane solution) was “blue” in each case. In addition, the ε in data set [2] (Isopar M) was determined as 54000 L/mol/cm; in data set [2] (n-decane) it was 61000 L/mol/cm; in data set [2] (tetradecane), 55000 L/mol/cm.

Take `CCCCC(CC)COC(=O)c1ccc(N=Nc2cc(C#N)c(N=Nc3ccc(N(CC(CC)CCCC)CC(CC)CCCC)cc3C)s2)cc1` (stereo not drawn) [Compound 6]: the results for the “ε · C” value in data set [1] (Isopar M), in data set [1] (n-decane) and in data set [1] (tetradecane) were 10400 cm⁻¹, 7000 cm⁻¹ and 9300 cm⁻¹, respectively. Also, the Solubility in data set [1] (in Isopar M) was 160 mM (≈ 116 mg/mL); in data set [1] (in n-decane), 110 mM (≈ 80 mg/mL); in data set [1] (in tetradecane) it was 140 mM (≈ 102 mg/mL). Also, the figures for the Absorption-maximum wavelength in data set [2] (Isopar M), in data set [2] (n-decane) and in data set [2] (tetradecane) were 634 nm, 633 nm and 635 nm, respectively. Further, the Color tone entry in data set [2] (Isopar M solution), in data set [2] (n-decane solution) and in data set [2] (tetradecane solution) was “blue” in each case. In addition, the ε in data set [2] (Isopar M) turned out to be 65000 L/mol/cm; in data set [2] (n-decane), 66000 L/mol/cm; in data set [2] (tetradecane), 65000 L/mol/cm.

Turning to `CCCCc1ccc(N=Nc2cc(C#N)c(N=Nc3cc(OC)c(N(CC(CC)CCCC)CC(CC)CCCC)cc3C)s2)cc1` (stereo not drawn) [Compound 7], the Solubility in data set [1] (in n-decane) was 140 mM (≈ 92 mg/mL). In addition, the “ε · C” value in data set [1] (n-decane) was 6900 cm⁻¹. In data set [2] (n-decane), this compound returned an Absorption-maximum wavelength of 640 nm and a ε of 50000 L/mol/cm. The Color tone result in data set [2] (n-decane solution) was “blue”.

On to `CCCCOc1ccc(N=Nc2sc(N=Nc3ccc(N(CC(CC)CCCC)CC(CC)CCCC)cc3Cl)nc2C)cc1` (stereo not drawn) [Compound 14], for which, in data set [1] (in n-decane), the Solubility was found to be 150 mM (≈ 98 mg/mL). The “ε · C” value in data set [1] (n-decane) is 7100 cm⁻¹. Besides, in data set [2] (n-decane), the Absorption-maximum wavelength stood at 546 nm and the ε turned out to be 47000 L/mol/cm. For the same compound, the Color tone entry in data set [2] (n-decane solution) is “red”.

Regarding `C=CCn1c(N=Nc2ccc(N(CCC)CCC)cc2NC(C)=O)nc(C#N)c1C#N` [Comparative example compound 2, reference compound], the “ε · C” value in data set [1] (Isopar M), in data set [1] (n-decane) and in data set [1] (tetradecane) was ≤ 10 or cm^−1 each time. Besides, the solubility at 24 h in data set [1] (in Isopar M), in data set [1] (in n-decane) and in data set [1] (in tetradecane) was not above 0.01 mM in each case. In addition, the figures for the Absorption-maximum wavelength in data set [2] (Isopar M), in data set [2] (n-decane) and in data set [2] (tetradecane) were 514 nm, 512 nm and 514 nm, respectively. Further, the Color tone result in data set [2] (Isopar M solution), in data set [2] (n-decane solution) and in data set [2] (tetradecane solution) was “red” each time. Moreover, the ε is 39000 L/mol/cm in data set [2] (Isopar M), 34000 L/mol/cm in data set [2] (n-decane) and 39000 L/mol/cm in data set [2] (tetradecane).
